Values after ≈ are worked out from the molar mass of the structure shown. Read-outs that look alike come from different tables or passages of the source.
What was measured:
[1] = test system: primary human hepatocytes; assay: Hepatotoxicity (WST-1); type: cell-based; conditions: at 32 μg/ml, 24 h
Protocol: Hepatotoxicity. Cryopreserved primary human hepatocytes were purchased from Cell Resource Core at Massachusetts General Hospital (Boston, Mass., USA). The hepatocytes were cultured in collagen sandwiched configuration in 24-well plates, as described previously (See, e.g., Dunn, J. C., et al. Hepatocyte function and extracellular matrix geometry: long-term culture in a sandwich configuration. FASEB J. 3, 174-177 (1989); Dunn, J. C., et al. Hepatocytes in collagen sandwich: evidence for transcriptional and translational regulation. J. Cell Biol. 116, 1043-1053 (1992); and Sharma, N. S. et al. Metabolic profiling based quantitative evaluation of hepatocellular metabolism in presence of adipocyte derived extracellular matrix. PLoS ONE 6, e20137 (2011)). Briefly, 0.4×10^6 live cells were seeded in 24-well plates coated with rat tail collagen type I. In order for cells to attach onto collagen gel, the 24-well plates were incubated in a humidified 5% CO2 incubator at 37° C. for 4 hours. The cells were washed and then cultured in 0.5 ml standard hepatocyte culture medium consisting of pre-warmed DMEM media supplemented with 10% FBS, 0.5 U/ml insulin, 14 ng/ml glucagon, 20 ng/ml EGF, 7.5 μg/ml hydrocortisone and 200 U/ml penicillin-streptomycin. The cell cultures were incubated in a humidified 5% CO2 incubator at 37° C. At 24 h after seeding, a top layer of collagen gel was deposited on the hepatocytes attached to the bottom collagen layer and incubated for another 24 h, then the hepatocytes were treated with a range of concentrations of retinoids for 24 h. […] WST-1 reduction was measured at absorbance 450 nm. The percent […] relative to that of the no-treatment control was calculated. […]
0.4×10^6 primary human hepatocytes cultured in a collagen gel sandwich system were treated with a range of concentration of the synthetic retinoids for 24 h. Cell viability was calculated based on the absorbance readings at 450 nm at 4 h after adding WST-1 using the following equation: % viability=(Abssample−Absblank)/(Absnon-treated−Absblank)×100. […]

[2] = test system: Salmonella typhimurium strains TA 1535 and TA 1538; conditions: for genotoxic potential: Ames test, result in words
Protocol: The Ames test was conducted using histidine auxotroph Salmonella typhimurium strains TA 1535 and TA 1538. To test mutagenic potential of the synthetic retinoids themselves and their metabolic products, the assay was conducted both with and without rat liver S9 fraction (Moltox, Boone, N.C., USA). Briefly, 100 μl of bacterial overnight cultures was added into 500 μl of phosphate buffer containing a range of amounts of the retinoids dissolved in 10 μl DMSO and with or without 4% S9. After incubation at 37° C. for 1 h, the samples were added into 2 ml of soft agar including 0.5 mM of histidine/biotin, mixed, and poured onto minimal glucose agar plates. The plates were incubated at 37° C. for 48 h, and the revertant colonies were counted. 10 μl DMSO was used as a negative control. […] 5 μg/plate 2-aminoanthracene was used as a positive control for both strains in the metabolic activation system. The test was performed in triplicate.

[3] = test system: S. aureus; assay: Minimal inhibitory concentration (MIC), broth microdilution; type: cell-based, Staphylococcus aureus
Method in brief: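 MIC values against methicillin-resistant Staphylococcus aureus were determined by standard broth microdilution following Clinical and Laboratory Standards Institute guidance (CLSI document M07-A8). Each well held 100 μl of test compound plus bacterial cells in MH broth, with the starting OD600 set to 0.03. Plates were incubated 18 hrs at 35° C. and absorbance was then read at 595 nm.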

[4] = test system: K. pneumonia WGLW2; assay: MIC, broth microdilution; type: cell-based, Klebsiella pneumoniae; conditions: Klebsiella pneumoniae; K. pneumonia WGLW2; read-out: Minimum inhibitory concentration
Text: Bacterial strains and growth conditions and persister isolation: methicillin-resistant S. aureus (MRSA) strain MW2 BAA-1707, vancomycin-resistant S. aureus strain VRS 1, 11 clinical S. aureus isolates, 8 clinical Enterococcus faecium isolates, Klebsiella pneumoniae WGLW2 (BEI Resources, Manassas, Va., USA), Acinetobacter baumannii ATCC 17978, Pseudomonas aeruginosa PA14, and Enterobacter aerogenes ATCC 13048 were used to test antimicrobial activity (See Table 1a). S. aureus and E. faecium strains were grown in tryptic soy broth (TSB) (BD, Franklin Lakes, N.J., USA) or brain-heart infusion (BHI) broth (BD, Franklin Lakes, N.J., USA), respectively at 37° C. at 225 rpm. K. pneumoniae, A. baumannii, P. aeruginosa, and E. aerogenes were grown in Luria Bertani (LB) broth (BD, Franklin Lakes, N.J., USA).
To test the bacterial MICs for compounds described herein, the total volume in each well was 100 μl of test compounds and bacterial cells in MH broth. […] The bacterial concentration was adjusted to an initial OD600 of 0.03. After incubation at 35° C. for 18 hrs, the absorbance was measured at 595 nm in accordance with CLSI document M07-A8. The MICs of antibiotics were determined by the standard microdilution method recommended by the Clinical and Laboratory Standards Institute.

[5] = Staphylococcus aureus, S. aureus BF1, read-out: Minimum inhibitory concentration
[6] = Staphylococcus aureus, S. aureus BF2, read-out: Minimum inhibitory concentration
[7] = Staphylococcus aureus, S. aureus BF3, read-out: Minimum inhibitory concentration
[8] = Staphylococcus aureus, S. aureus BF4, read-out: Minimum inhibitory concentration
[9] = Staphylococcus aureus, S. aureus BF5, read-out: Minimum inhibitory concentration
[10] = Staphylococcus aureus, S. aureus BF6, read-out: Minimum inhibitory concentration
[11] = Staphylococcus aureus, S. aureus BF7, read-out: Minimum inhibitory concentration
[12] = Staphylococcus aureus, S. aureus BF8, read-out: Minimum inhibitory concentration
[13] = Staphylococcus aureus, S. aureus BF9, read-out: Minimum inhibitory concentration
[14] = Staphylococcus aureus, S. aureus BF10, read-out: Minimum inhibitory concentration
[15] = Staphylococcus aureus, S. aureus BF11, read-out: Minimum inhibitory concentration
[16] = Staphylococcus aureus, S. aureus JE2 (wild-type), read-out: MIC
[17] = Staphylococcus aureus, S. aureus MW2, read-out: Minimum inhibitory concentration
[18] = Staphylococcus aureus, S. aureus NE896 (JE2 yjbH::ϕNΣ)
[19] = Staphylococcus aureus, S. aureus NE1645 (JE2 manA::ϕNΣ)
[20] = Staphylococcus aureus, S. aureus NE1756 (JE2 graS::ϕNΣ)
[21] = Staphylococcus aureus, S. aureus VRS1, read-out: Minimum inhibitory concentration
[22] = Staphylococcus aureus, methicillin resistant S. aureus (MRSA) strain MW2, read-out: MIC

Compound: O=C(O)/C=C/c1ccc(-c2ccc(O)c(C34CC5CC(CC(C5)C3)C4)c2)cc1 [Adarotene, (2E)-3-(4′-Hydroxy-3′-tricyclo[3.3.1.13,7]dec-1-yl[1,1′-biphenyl]-4-yl)-2-propenoic acid]
- toxicity to primary human hepatocytes [1]: did not cause significant toxicity
- genotoxic potential [2]: did not show significant genotoxic potential
- Number of revertants (T1535) ([2]; With S9, 5 μg/plate): 6 ± 2
- Number of revertants (T1538) ([2]; With S9, 5 μg/plate): 8 ± 4
- Number of revertants (T1535) ([2]; With S9, 25 μg/plate): 7 ± 3
- Number of revertants (T1538) ([2]; With S9, 25 μg/plate): 8 ± 1
- Number of revertants (T1535) ([2]; With S9, 100 μg/plate): 7 ± 1
- Number of revertants (T1538) ([2]; With S9, 100 μg/plate): 7 ± 3
- Number of revertants (T1535) ([2]; Without S9, 5 μg/plate): 6 ± 1
- Number of revertants (T1538) ([2]; Without S9, 5 μg/plate): 6 ± 1
- Number of revertants (T1535) ([2]; Without S9, 25 μg/plate): 7 ± 3
- Number of revertants (T1538) ([2]; Without S9, 25 μg/plate): 4 ± 3
- Number of revertants (T1535) ([2]; Without S9, 100 μg/plate): 6 ± 2
- Number of revertants (T1538) ([2]; Without S9, 100 μg/plate): 5 ± 2
- MIC ([3]; MRSA MW2, text b656, read-out: MIC): 2 µg/mL (≈ 5.34 µM)
- MIC ([3]; Staphylococcus aureus, MRSA, 28 clinical MRSA isolates, 1 strain, read-out: MIC): 4 µg/mL (≈ 10.7 µM)
- MIC [3, 5]: 4 µg/mL (≈ 10.7 µM)
- MIC [3, 6]: 2 µg/mL (≈ 5.34 µM)
- MIC [3, 7]: 2 µg/mL (≈ 5.34 µM)
- MIC [3, 8]: 2 µg/mL (≈ 5.34 µM)
- MIC [3, 9]: 2 µg/mL (≈ 5.34 µM)
- MIC [3, 10]: 2 µg/mL (≈ 5.34 µM)
- MIC [3, 11]: 2 µg/mL (≈ 5.34 µM)
- MIC [3, 12]: 2 µg/mL (≈ 5.34 µM)
- MIC [3, 13]: 2 µg/mL (≈ 5.34 µM)
- MIC [3, 14]: 2 µg/mL (≈ 5.34 µM)
- MIC [3, 15]: 2 µg/mL (≈ 5.34 µM)
- MIC [3, 16]: 2.5 µg/mL (≈ 6.68 µM)
- MIC [3, 17]: 2 µg/mL (≈ 5.34 µM)
- MIC ([3]; Staphylococcus aureus, S. aureus MW2 mutant SP1-8 (graS)): 3 µg/mL (≈ 8.01 µM)
- MIC ([3]; Staphylococcus aureus, S. aureus MW2 mutant SP1-48 (graS, manA)): 4 µg/mL (≈ 10.7 µM)
- MIC ([3]; Staphylococcus aureus, S. aureus MW2 mutant SP1-74 (graS, manA, MW2474)): 4 µg/mL (≈ 10.7 µM)
- MIC ([3]; Staphylococcus aureus, S. aureus MW2 mutant SP1-100 (graS, manA, MW2474)): 4 µg/mL (≈ 10.7 µM)
- MIC ([3]; Staphylococcus aureus, S. aureus MW2 mutant SP2-13 (yjbH)): 3 µg/mL (≈ 8.01 µM)
- MIC ([3]; Staphylococcus aureus, S. aureus MW2 mutant SP2-52 (yjbH, dltB)): 3 µg/mL (≈ 8.01 µM)
- MIC ([3]; Staphylococcus aureus, S. aureus MW2 mutant SP2-59 (yjbH, dltB, manA)): 4 µg/mL (≈ 10.7 µM)
- MIC ([3]; Staphylococcus aureus, S. aureus MW2 mutant SP2-65 (yjbH, dltB, manA, MW1685)): 4 µg/mL (≈ 10.7 µM)
- MIC ([3]; Staphylococcus aureus, S. aureus MW2 mutant SP2-100 (yjbH dltB, manA, MW1685)): 4 µg/mL (≈ 10.7 µM)
- MIC ([3]; Staphylococcus aureus, S. aureus MW2 serial passage culture SP1-1 (no mutated gene)): 2 µg/mL (≈ 5.34 µM)
- MIC ([3]; Staphylococcus aureus, S. aureus MW2 serial passage culture SP2-1 (no mutated gene)): 2 µg/mL (≈ 5.34 µM)
- MIC [3, 18]: 4 µg/mL (≈ 10.7 µM)
- MIC [3, 19]: 4 µg/mL (≈ 10.7 µM)
- MIC [3, 20]: 4 µg/mL (≈ 10.7 µM)
- MIC [3, 21]: 1 µg/mL (≈ 2.67 µM)
- MIC [3, 22]: 2 µg/mL (≈ 5.34 µM)
- MIC [4]: > 64 µg/mL

Compound: O=C(O)c1ccc2cc(-c3ccc(O)c(C45CC6CC(CC(C6)C4)C5)c3)ccc2c1 [CD437, 6-(4-hydroxy-3-tricyclo[3.3.1.13,7]dec-1-ylphenyl)-2-naphthalenecarboxylic acid]
- toxicity to primary human hepatocytes [1]: did not cause significant toxicity
- genotoxic potential [2]: did not show significant genotoxic potential
- Number of revertants (T1535) ([2]; With S9, 5 μg/plate): 6 ± 3
- Number of revertants (T1538) ([2]; With S9, 5 μg/plate): 9 ± 3
- Number of revertants (T1535) ([2]; With S9, 25 μg/plate): 8 ± 3
- Number of revertants (T1538) ([2]; With S9, 25 μg/plate): 10 ± 2
- Number of revertants (T1535) ([2]; With S9, 100 μg/plate): 8 ± 3
- Number of revertants (T1538) ([2]; With S9, 100 μg/plate): 6 ± 1
- Number of revertants (T1535) ([2]; Without S9, 5 μg/plate): 6 ± 2
- Number of revertants (T1538) ([2]; Without S9, 5 μg/plate): 5 ± 2
- Number of revertants (T1535) ([2]; Without S9, 25 μg/plate): 5 ± 2
- Number of revertants (T1538) ([2]; Without S9, 25 μg/plate): 4 ± 1
- Number of revertants (T1535) ([2]; Without S9, 100 μg/plate): 8 ± 2
- Number of revertants (T1538) ([2]; Without S9, 100 μg/plate): 3 ± 3
- MIC ([3]; Staphylococcus aureus, MRSA, 28 clinical MRSA isolates, 28/28 isolates, read-out: MIC): ≤ 2 µg/mL
- MIC [3, 5]: 2 µg/mL (≈ 5.02 µM)
- MIC [3, 6]: 1 µg/mL (≈ 2.51 µM)
- MIC [3, 7]: 1 µg/mL (≈ 2.51 µM)
- MIC [3, 8]: 2 µg/mL (≈ 5.02 µM)
- MIC [3, 9]: 1 µg/mL (≈ 2.51 µM)
- MIC [3, 10]: 1 µg/mL (≈ 2.51 µM)
- MIC [3, 11]: 1 µg/mL (≈ 2.51 µM)
- MIC [3, 12]: 1 µg/mL (≈ 2.51 µM)
- MIC [3, 13]: 1 µg/mL (≈ 2.51 µM)
- MIC [3, 14]: 1 µg/mL (≈ 2.51 µM)
- MIC [3, 15]: 1 µg/mL (≈ 2.51 µM)
- MIC [3, 16]: 1.5 µg/mL (≈ 3.76 µM)
- MIC [3, 17]: 1 µg/mL (≈ 2.51 µM)
- MIC [3, 18]: 2 µg/mL (≈ 5.02 µM)
- MIC [3, 19]: 3 µg/mL (≈ 7.53 µM)
- MIC [3, 20]: 2 µg/mL (≈ 5.02 µM)
- MIC [3, 21]: 1 µg/mL (≈ 2.51 µM)
- MIC [3, 22]: 1 µg/mL (≈ 2.51 µM)
- MIC [4]: > 64 µg/mL

Reference: patent US11707442B2, “Antibacterial and antifungal compounds” (The General Hospital Corporation, priority 2015, dated 2023)
